Among the data in patent US8552176B2 (priority 2010, dated 2013) are GI50 values, retold here.

Holding throughout (assay): cells
Type in all cases: cell-based, human

In one assay the test system is HT29. Conditions: read-out: GI50 HT29 colorectal.
The subject of a further assay is A549. The following applies: read-out: GI50 A549 lung (+p53).
The test system of another assay is Hep3b. Conditions: read-out: GI50 Hep3b liver.
The subject of another assay is SKOV3. The following applies: read-out: GI50 SKOV3 ovary.
The test system of another assay is NCI-H460. Conditions: read-out: GI50 NCI-H460 lung.
The subject of a further assay is MCF7. Conditions: read-out: GI50 MCF7 breast.
Another assay has as its system H1299. Conditions: read-out: GI50 H1299 lung (−p53).
The test system of another assay is DU-145. The following applies: read-out: GI50 DU-145 prostate.
For a further assay, the system named is SF-268. The following applies: read-out: GI50 SF-268 CNS.
For a further assay, the system named is HCT-15. Conditions: read-out: GI50 HCT-15 colorectal.

For the compound `CON(CCCCc1ccc(N(CCCl)CCCl)cc1)C1OC(CO)C(O)C(O)C1O` (mixture of isomers) [Compound 10], the GI50 – broadly, the concentration giving 50% growth inhibition – in the assay on HT29 is 0.6 ± 0.9 µM; in the assay with A549 it was 3.4 µM; in the assay with Hep3b, 4.4 ± 0.3 µM; in the assay on SKOV3 it was 3 ± 0.1 µM; in the assay with NCI-H460, 9.5 ± 0.7 µM; with MCF7, 9.3 ± 0.7 µM. In addition, the GI50 with H1299 came to 0.53 ± 0.05 µM; with DU-145, 5.8 ± 0.1 µM; in the assay with SF-268, 3.1 ± 0.1 µM; with HCT-15, 0.97 ± 0.07 µM.

For the compound `CON(CCCCc1ccc(N(CCCl)CCCl)cc1)C1OC(CO)C(O)C(O)C1O` (mixture of isomers) [Compound 11], the GI50 amounted to 2.2 ± 0.1 µM in the assay on HT29; 3.5 ± 0.2 µM in the assay on A549; 2.5 ± 0.1 µM in the assay on Hep3b; 3.1 ± 0.1 µM in the assay on SKOV3; 10.4 ± 0.8 µM in the assay on NCI-H460; 9 ± 0.7 µM with MCF7. The GI50 with H1299 is 1.3 ± 0.1 µM; in the assay with DU-145, 6 ± 0.1 µM; with SF-268, 3.2 ± 0.1 µM; in the assay with HCT-15 it was 1.7 ± 0.1 µM.

With `CON(CCCCc1ccc(N(CCCl)CCCl)cc1)C1OC(CO)C(O)C(O)C1O` (mixture of isomers) [Compound 12], the GI50 with HT29 turned out to be 1.6 ± 0.2 µM; in the assay with A549 it was 2.4 ± 0.1 µM; with Hep3b it was 1.7 ± 0.1 µM; with SKOV3 it was 1.9 ± 0.1 µM; in the assay with NCI-H460, 6.6 ± 0.4 µM; in the assay with MCF7, 6.5 ± 0.1 µM. For the same compound, the GI50 came to 0.91 ± 0.05 µM with H1299, 4.1 ± 0.2 µM in the assay with DU-145, 1.9 ± 0.1 µM with SF-268 and 1.4 ± 0.1 µM with HCT-15.

With `CON(CCCCc1ccc(N(CCCl)CCCl)cc1)C1OC(CO)C(O)C(O)C1O` (mixture of isomers) [Compound 13], the GI50 in the assay with HT29 was 2.1 ± 0.2 µM; in the assay on A549, 3.1 ± 0.2 µM; with Hep3b, 2 ± 0.1 µM; in the assay on SKOV3, 2.5 ± 0.1 µM; in the assay on NCI-H460, 7.9 ± 0.5 µM; in the assay with MCF7, 7.9 ± 0.8 µM. For the same compound, the GI50 in the assay with H1299 is 1.3 ± 0.1 µM; in the assay on DU-145, 4.1 ± 0.1 µM; with SF-268, 2.3 ± 0.1 µM; in the assay on HCT-15, 1.4 ± 0.1 µM.

`CON(CCCCc1ccc(N(CCCl)CCCl)cc1)C1OCC(O)C(O)C1O` (mixture of isomers) [Compound 14]: the GI50 was found to be 1.5 ± 0.2 µM in the assay on HT29; 2 ± 0.1 µM in the assay on A549; 1.6 ± 0.1 µM with Hep3b; 2 ± 0.1 µM in the assay with SKOV3; 5 ± 0.4 µM with NCI-H460; 4.6 ± 0.1 µM with MCF7. For the same compound, the GI50 in the assay with H1299 stood at 0.73 ± 0.03 µM; in the assay with DU-145, 3.3 ± 0.1 µM; in the assay with SF-268, 1.8 ± 0.1 µM; with HCT-15, 0.9 ± 0.04 µM.

In the case of `CON(CCCCc1ccc(N(CCCl)CCCl)cc1)C1OCC(O)C(O)C1O` (mixture of isomers) [Compound 15], the GI50 in the assay with HT29 was 1.9 ± 0.1 µM; in the assay with A549, 2.3 ± 0.2 µM; in the assay on Hep3b, 1.9 ± 0.1 µM; with SKOV3, 2.2 ± 0.1 µM; in the assay with NCI-H460 it was 6.1 ± 0.5 µM; in the assay with MCF7, 5.4 ± 0.1 µM. The GI50 in the assay on H1299 worked out at 0.84 ± 0.04 µM; with DU-145, 3.6 ± 0.1 µM; in the assay with SF-268, 1.9 ± 0.1 µM; in the assay with HCT-15 it was 1 ± 0.05 µM.

Regarding `CON(CCCCc1ccc(N(CCCl)CCCl)cc1)C1OC(CO)C(OC2OC(CO)C(O)C(O)C2O)C(O)C1O` (mixture of isomers) [Compound 17], the GI50 in the assay with HT29 was determined as 1.9 ± 0.1 µM; in the assay on A549 it was 1.6 ± 0.1 µM; in the assay on Hep3b, 1.2 ± 0.1 µM; in the assay with SKOV3, 1.8 ± 0.1 µM; in the assay with NCI-H460, 3.8 ± 0.3 µM; in the assay with MCF7, 1.7 ± 0.1 µM. For the same compound, the GI50 with H1299 amounted to 1.8 ± 0.1 µM; in the assay on DU-145, 1.8 ± 0.1 µM; in the assay with SF-268, 1.5 ± 0.1 µM; with HCT-15 it was 2.3 ± 0.1 µM.

As to `CON(CCCCc1ccc(N(CCCl)CCCl)cc1)C1CC(O)C(O)C(C)O1` (mixture of isomers) [Compound 18], the GI50 is 2.1 ± 0.09 µM with HT29; 2.7 ± 0.2 µM in the assay on A549; 3.2 ± 0.1 µM with Hep3b; 3 ± 0.1 µM in the assay with SKOV3; 6.5 ± 0.4 µM in the assay with NCI-H460; 6.3 ± 0.1 µM with MCF7. The GI50 in the assay with H1299 was 1.1 ± 0.1 µM; with DU-145, 4.3 ± 0.1 µM; in the assay on SF-268, 2.8 ± 0.1 µM; in the assay with HCT-15, 1.3 ± 0.1 µM.

For `CON(CCCCc1ccc(N(CCCl)CCCl)cc1)C1OC(C)C(O)C(O)C1O` (mixture of isomers) [Compound 20], the GI50 in the assay on HT29 was determined as 6.7 ± 0.3 µM; in the assay with A549, 9.6 ± 0.4 µM; with Hep3b it was 2.6 ± 0.2 µM; with SKOV3, 1.7 ± 0.1 µM; in the assay on NCI-H460 it was 5.9 ± 0.3 µM; in the assay on MCF7, 3 ± 0.2 µM. Also, the GI50 amounted to 3.5 ± 0.2 µM in the assay with H1299, 4.1 ± 0.9 µM in the assay with DU-145, 1.7 ± 0.1 µM with SF-268 and 0.82 ± 0.07 µM with HCT-15.

With `CON(CCCCc1ccc(N(CCCl)CCCl)cc1)C1OC(C)C(O)C(O)C1O` (mixture of isomers) [Compound 21], the 50% growth inhibitory concentration (GI50) in the assay with HT29 is 2.3 ± 0.1 µM; in the assay with A549, 2.2 ± 0.1 µM; in the assay on Hep3b, 3 ± 0.1 µM; in the assay with SKOV3, 1.8 ± 0.1 µM; with NCI-H460, 5.4 ± 0.3 µM; with MCF7, 0.78 ± 0.09 µM. The 50% growth inhibitory concentration (GI50) is 1.2 ± 0.1 µM in the assay with H1299, 3.8 ± 0.1 µM in the assay on DU-145, 2 ± 0.1 µM in the assay with SF-268 and 1.4 ± 0.1 µM in the assay on HCT-15.

As for `CON(CCCCc1ccc(N(CCCl)CCCl)cc1)C1OC(C)C(OCc2ccccc2)C(OCc2ccccc2)C1OCc1ccccc1` (mixture of isomers) [Compound 22], the GI50 amounted to 7.5 ± 0.3 µM in the assay with HT29; 6.4 ± 0.2 µM with A549; 9.5 ± 0.4 µM in the assay on Hep3b; 7.2 ± 0.4 µM with SKOV3; 15.8 ± 0.7 µM in the assay with NCI-H460; 4 ± 1 µM with MCF7. The GI50 is 3.3 ± 0.2 µM with H1299, 10 ± 0.4 µM with DU-145, 5.7 ± 0.2 µM in the assay on SF-268 and 4.6 ± 0.2 µM with HCT-15.

For the compound `CON(CCCCc1ccc(N(CCCl)CCCl)cc1)C1OC(CO)C(O)C(O)C1O` (mixture of isomers) [Compound 23], the GI50 in the assay with HT29 was 3.3 ± 0.4 µM; in the assay on A549, 4.4 ± 0.4 µM; in the assay on Hep3b, 3.6 ± 0.3 µM; in the assay with SKOV3, 3.4 ± 0.5 µM; in the assay on NCI-H460, 9.7 ± 0.8 µM; in the assay on MCF7, 1.3 ± 0.2 µM. The GI50 is 1.3 ± 0.1 µM with H1299, 5.6 ± 0.3 µM in the assay on DU-145, 1.9 ± 0.5 µM in the assay on SF-268 and 2.4 ± 0.1 µM in the assay with HCT-15.

In the case of `CON(CCCCc1ccc(N(CCCl)CCCl)cc1)C1OC(CO)C(O)C(O)C1O` (mixture of isomers) [Compound 24], the GI50 with HT29 amounted to 3.7 ± 0.5 µM; in the assay with A549, 4.8 ± 0.4 µM; with Hep3b, 3.8 ± 0.3 µM; with SKOV3, 4.1 ± 0.6 µM; in the assay with NCI-H460, 10.4 ± 0.7 µM; with MCF7, 1.3 ± 0.1 µM. In addition, the 50% growth inhibitory concentration (GI50) in the assay on H1299 is 1.4 ± 0.1 µM; in the assay with DU-145 it was 5.5 ± 0.2 µM; with SF-268, 2 ± 0.4 µM; in the assay on HCT-15, 2.3 ± 0.3 µM.

Regarding `CON(CCCCc1ccc(N(CCCl)CCCl)cc1)C1CC(O)C(O)C(CO)O1` (mixture of isomers) [Compound 25], the GI50 with HT29 turned out to be 3.5 ± 0.7 µM; in the assay on A549, 3.2 ± 0.2 µM; with Hep3b, 3.3 ± 0.1 µM; in the assay with SKOV3 it was 2.4 ± 0.1 µM; in the assay with NCI-H460 it was 6.6 ± 0.4 µM; with MCF7, 1.04 ± 0.08 µM. The GI50 in the assay with H1299 was 1.5 ± 0.1 µM; in the assay on DU-145 it was 5 ± 0.7 µM; in the assay with SF-268, 2.2 ± 0.1 µM; with HCT-15, 1.6 ± 0.1 µM.

As to `CON(CCCCc1ccc(N(CCCl)CCCl)cc1)C1OC(C(=O)O)C(O)C(O)C1O` (mixture of isomers) [Compound 26], the GI50 was 14.9 ± 0.1 µM with HT29; 17.1 ± 0.8 µM in the assay with A549; 14.7 ± 0.8 µM in the assay on Hep3b; 12.8 ± 0.5 µM in the assay on SKOV3; 34 ± 2 µM with NCI-H460; 4.5 ± 0.5 µM in the assay with MCF7. Moreover, the GI50 in the assay with H1299 was 4.9 ± 0.7 µM; in the assay on DU-145, 16.3 ± 0.5 µM; with SF-268 it was 8.9 ± 0.4 µM; in the assay with HCT-15, 8.1 ± 0.6 µM.

Consider `CON(CCCCc1ccc(N(CCCl)CCCl)cc1)C1OC(CO)C(O)C(O)C1NC(C)=O` (mixture of isomers) [Compound 27], for which the GI50 was found to be 12 ± 1 µM in the assay on HT29; 22 ± 1 µM with A549; 11.8 ± 0.4 µM in the assay with Hep3b; 11 ± 1 µM with SKOV3; 42 ± 3 µM with NCI-H460; 4.4 ± 0.6 µM in the assay with MCF7. For the same compound, the GI50 in the assay on H1299 is 3.8 ± 0.4 µM; in the assay with DU-145 it was 16.7 ± 0.7 µM; with SF-268 it was 4.2 ± 0.4 µM; in the assay with HCT-15 it was 19.1 ± 0.8 µM.

Consider `CON(CCCCc1ccc(N(CCCl)CCCl)cc1)C1OC(CN)C(O)C(O)C1O` (mixture of isomers) [Compound 34], for which the GI50 is 2.5 ± 0.1 µM in the assay with HT29; 3.7 ± 0.2 µM in the assay with A549; 3.5 ± 0.2 µM with Hep3b; 2.2 ± 0.1 µM with SKOV3; 5 ± 0.4 µM in the assay on NCI-H460; 3.7 ± 0.4 µM in the assay on MCF7. Besides, the GI50 in the assay on H1299 is 1.1 ± 0.1 µM; with DU-145, 2.8 ± 0.1 µM; in the assay on SF-268, 2.2 ± 0.1 µM; in the assay with HCT-15, 1.3 ± 0.1 µM.

On to `CON(CCCCc1ccc(N(CCCl)CCCl)cc1)C1OC(C)C(O)C(O)C1O` (centres unmarked) [Compound 37], for which the GI50 in the assay with HT29 was 2.2 ± 0.2 µM; with A549 it was 4.6 ± 0.2 µM; in the assay with Hep3b, 4.4 ± 0.3 µM; in the assay with NCI-H460, 8.5 ± 0.8 µM; in the assay with MCF7 it was 5.8 ± 0.1 µM; in the assay on H1299, 1.8 ± 0.1 µM. Also, the GI50 in the assay on DU-145 was determined as 4.9 ± 0.1 µM; in the assay with SF-268, 2.9 ± 0.1 µM; with HCT-15, 1.1 ± 0.1 µM.
